# Data reported in ChEMBL document CHEMBL4507312 (2021).
# Experiments:
# [1] = target: Alpha-2A adrenergic receptor (Homo sapiens) (UniProt P08913); details: Compound concentration 10.0 uM
# [2] = target: 5-hydroxytryptamine receptor 7 (Homo sapiens) (UniProt P34969); details: Compound concentration 10.0 uM
# [3] = target: Muscarinic acetylcholine receptor M5 (Homo sapiens) (UniProt P08912); details: Compound concentration 10.0 uM
# [4] = target: Muscarinic acetylcholine receptor M4 (Homo sapiens) (UniProt P08173); details: Compound concentration 10.0 uM
# [5] = target: T1, Sigma intracellular receptor 2 (Homo sapiens, UniProt Q5BJF2); assay: GPCRScan assay: inhibition of Sigma 2; design: radioligand conc. used [nm] 5.0, parental cells HEKT
# T1 sequence (Q5BJF2 whole entry): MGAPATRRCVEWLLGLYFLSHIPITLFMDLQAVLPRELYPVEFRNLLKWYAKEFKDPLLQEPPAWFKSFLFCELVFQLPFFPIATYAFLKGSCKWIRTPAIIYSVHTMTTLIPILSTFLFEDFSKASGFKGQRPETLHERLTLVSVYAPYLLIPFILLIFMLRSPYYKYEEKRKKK
# [6] = target: 5-hydroxytryptamine receptor 2C (Homo sapiens) (UniProt P28335); details: Compound concentration 10.0 uM
# 5-hydroxytryptamine receptor 2C (Homo sapiens), sequence (P28335 whole entry): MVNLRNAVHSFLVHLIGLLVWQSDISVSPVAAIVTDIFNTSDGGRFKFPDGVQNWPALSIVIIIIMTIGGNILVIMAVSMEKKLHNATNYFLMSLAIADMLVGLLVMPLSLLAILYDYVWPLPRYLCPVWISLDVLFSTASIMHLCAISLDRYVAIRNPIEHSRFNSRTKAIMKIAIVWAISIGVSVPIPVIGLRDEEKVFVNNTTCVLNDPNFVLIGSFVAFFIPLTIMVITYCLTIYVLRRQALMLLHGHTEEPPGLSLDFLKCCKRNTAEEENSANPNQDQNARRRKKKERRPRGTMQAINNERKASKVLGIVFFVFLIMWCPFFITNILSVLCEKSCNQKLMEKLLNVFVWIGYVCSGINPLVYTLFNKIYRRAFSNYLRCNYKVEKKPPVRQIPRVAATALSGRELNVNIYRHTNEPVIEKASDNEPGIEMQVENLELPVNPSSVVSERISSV
# [7] = target: Delta-type opioid receptor (Homo sapiens) (UniProt P41143); details: Compound concentration 10.0 uM
# [8] = target: Beta-3 adrenergic receptor (Homo sapiens) (UniProt P13945); details: Compound concentration 10.0 uM
# Beta-3 adrenergic receptor (Homo sapiens), sequence (P13945 whole entry, looked up): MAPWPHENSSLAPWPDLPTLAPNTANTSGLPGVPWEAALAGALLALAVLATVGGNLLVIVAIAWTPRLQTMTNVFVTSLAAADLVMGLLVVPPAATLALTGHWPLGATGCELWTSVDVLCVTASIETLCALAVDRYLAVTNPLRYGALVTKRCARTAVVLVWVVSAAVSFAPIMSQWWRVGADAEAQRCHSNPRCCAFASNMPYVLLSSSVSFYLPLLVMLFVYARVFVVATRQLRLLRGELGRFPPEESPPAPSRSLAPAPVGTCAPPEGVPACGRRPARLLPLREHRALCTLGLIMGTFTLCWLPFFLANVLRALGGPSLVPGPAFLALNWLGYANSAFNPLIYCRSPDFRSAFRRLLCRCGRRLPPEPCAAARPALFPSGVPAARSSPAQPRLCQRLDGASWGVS
# [9] = target: Histamine H4 receptor (Homo sapiens) (UniProt Q9H3N8); details: Compound concentration 10.0 uM
# Histamine H4 receptor (Homo sapiens), sequence (Q9H3N8 whole entry): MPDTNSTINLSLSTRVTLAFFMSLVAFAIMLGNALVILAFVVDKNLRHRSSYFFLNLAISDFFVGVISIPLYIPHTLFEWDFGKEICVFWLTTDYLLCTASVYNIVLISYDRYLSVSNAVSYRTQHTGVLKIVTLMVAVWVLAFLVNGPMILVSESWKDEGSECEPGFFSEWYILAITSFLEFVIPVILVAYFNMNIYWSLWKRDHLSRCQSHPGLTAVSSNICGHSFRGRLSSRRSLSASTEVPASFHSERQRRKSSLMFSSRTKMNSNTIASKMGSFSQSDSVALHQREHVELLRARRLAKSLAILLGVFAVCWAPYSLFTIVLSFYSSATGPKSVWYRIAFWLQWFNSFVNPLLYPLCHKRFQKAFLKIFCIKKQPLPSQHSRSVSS
# [10] = target: Kappa-type opioid receptor (Homo sapiens) (UniProt P41145); details: Compound concentration 10.0 uM
# [11] = target: Beta-1 adrenergic receptor (Homo sapiens) (UniProt P08588); details: Compound concentration 10.0 uM
# [12] = target: 5-hydroxytryptamine receptor 1B (Homo sapiens) (UniProt P28222); details: Compound concentration 10.0 uM
# 5-hydroxytryptamine receptor 1B (Homo sapiens), sequence (P28222 whole entry): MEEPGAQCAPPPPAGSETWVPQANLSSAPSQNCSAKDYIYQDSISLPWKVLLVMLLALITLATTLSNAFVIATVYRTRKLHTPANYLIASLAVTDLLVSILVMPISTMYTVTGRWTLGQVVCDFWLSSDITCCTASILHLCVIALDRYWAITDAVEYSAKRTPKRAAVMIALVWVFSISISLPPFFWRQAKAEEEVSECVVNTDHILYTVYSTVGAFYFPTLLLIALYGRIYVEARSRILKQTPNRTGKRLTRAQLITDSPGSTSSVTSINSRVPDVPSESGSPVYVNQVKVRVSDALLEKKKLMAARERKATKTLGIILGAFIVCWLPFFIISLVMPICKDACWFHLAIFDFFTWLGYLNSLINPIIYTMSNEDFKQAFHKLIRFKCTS
# Rattus norvegicus = organism: Rattus norvegicus; details: Compound concentration 10.0 uM
# [13] = target: Muscarinic acetylcholine receptor M2 (Homo sapiens) (UniProt P08172); details: Compound concentration 10.0 uM
# Muscarinic acetylcholine receptor M2 (Homo sapiens), sequence (P08172 whole entry): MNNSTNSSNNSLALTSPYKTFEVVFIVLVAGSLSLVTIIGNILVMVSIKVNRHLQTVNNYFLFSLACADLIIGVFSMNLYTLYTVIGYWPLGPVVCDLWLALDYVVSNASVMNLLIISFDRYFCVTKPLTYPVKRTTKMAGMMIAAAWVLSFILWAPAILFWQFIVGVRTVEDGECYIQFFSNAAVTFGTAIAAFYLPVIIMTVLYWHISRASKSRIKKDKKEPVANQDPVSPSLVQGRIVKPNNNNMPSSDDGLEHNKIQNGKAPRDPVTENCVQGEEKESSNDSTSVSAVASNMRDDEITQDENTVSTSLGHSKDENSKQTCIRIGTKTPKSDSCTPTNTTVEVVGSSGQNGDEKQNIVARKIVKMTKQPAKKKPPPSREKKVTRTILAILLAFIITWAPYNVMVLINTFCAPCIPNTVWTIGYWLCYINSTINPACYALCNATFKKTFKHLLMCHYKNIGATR
# [14] = target: Histamine H1 receptor (Homo sapiens) (UniProt P35367); details: Compound concentration 10.0 uM
# [15] = target: Beta-2 adrenergic receptor (Homo sapiens) (UniProt P07550); details: Compound concentration 10.0 uM
# [16] = target: Muscarinic acetylcholine receptor M1 (Homo sapiens) (UniProt P11229); details: Compound concentration 10.0 uM
# [17] = target: Sodium-dependent serotonin transporter (Homo sapiens) (UniProt P31645); details: Compound concentration 10.0 uM
# Sodium-dependent serotonin transporter (Homo sapiens), sequence (P31645 whole entry, looked up): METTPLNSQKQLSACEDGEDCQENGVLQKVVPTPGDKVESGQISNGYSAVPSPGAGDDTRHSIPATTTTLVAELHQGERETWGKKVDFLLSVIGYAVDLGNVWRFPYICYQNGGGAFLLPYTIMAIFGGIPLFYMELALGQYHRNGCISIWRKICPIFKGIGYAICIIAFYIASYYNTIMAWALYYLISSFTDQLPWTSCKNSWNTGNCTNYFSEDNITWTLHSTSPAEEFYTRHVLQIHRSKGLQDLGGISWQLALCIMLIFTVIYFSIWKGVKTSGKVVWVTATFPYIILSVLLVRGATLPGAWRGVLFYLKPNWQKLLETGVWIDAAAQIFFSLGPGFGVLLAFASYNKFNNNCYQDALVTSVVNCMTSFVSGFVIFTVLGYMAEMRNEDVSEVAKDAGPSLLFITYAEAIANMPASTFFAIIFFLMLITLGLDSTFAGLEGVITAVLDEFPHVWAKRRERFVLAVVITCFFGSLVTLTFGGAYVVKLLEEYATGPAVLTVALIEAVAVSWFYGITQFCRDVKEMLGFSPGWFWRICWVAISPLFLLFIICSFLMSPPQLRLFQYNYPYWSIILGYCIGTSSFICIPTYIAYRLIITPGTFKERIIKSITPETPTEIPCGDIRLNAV
# [18] = target: 5-hydroxytryptamine receptor 2B (Homo sapiens) (UniProt P41595); details: Compound concentration 10.0 uM
# [19] = target: T1, Sigma intracellular receptor 2; details: Compound concentration 10.0 uM
# [20] = target: Sodium-dependent dopamine transporter (Homo sapiens) (UniProt Q01959); details: Compound concentration 10.0 uM
# [21] = target: D(1B) dopamine receptor (Homo sapiens) (UniProt P21918); details: Compound concentration 10.0 uM
# [22] = target: Alpha-2B adrenergic receptor (Homo sapiens) (UniProt P18089); details: Compound concentration 10.0 uM
# [23] = target: 5-hydroxytryptamine receptor 3A (Homo sapiens) (UniProt P46098); details: Compound concentration 10.0 uM
# [24] = target: Muscarinic acetylcholine receptor M3 (Homo sapiens) (UniProt P20309); details: Compound concentration 10.0 uM
# Muscarinic acetylcholine receptor M3 (Homo sapiens), sequence (P20309 whole entry, looked up): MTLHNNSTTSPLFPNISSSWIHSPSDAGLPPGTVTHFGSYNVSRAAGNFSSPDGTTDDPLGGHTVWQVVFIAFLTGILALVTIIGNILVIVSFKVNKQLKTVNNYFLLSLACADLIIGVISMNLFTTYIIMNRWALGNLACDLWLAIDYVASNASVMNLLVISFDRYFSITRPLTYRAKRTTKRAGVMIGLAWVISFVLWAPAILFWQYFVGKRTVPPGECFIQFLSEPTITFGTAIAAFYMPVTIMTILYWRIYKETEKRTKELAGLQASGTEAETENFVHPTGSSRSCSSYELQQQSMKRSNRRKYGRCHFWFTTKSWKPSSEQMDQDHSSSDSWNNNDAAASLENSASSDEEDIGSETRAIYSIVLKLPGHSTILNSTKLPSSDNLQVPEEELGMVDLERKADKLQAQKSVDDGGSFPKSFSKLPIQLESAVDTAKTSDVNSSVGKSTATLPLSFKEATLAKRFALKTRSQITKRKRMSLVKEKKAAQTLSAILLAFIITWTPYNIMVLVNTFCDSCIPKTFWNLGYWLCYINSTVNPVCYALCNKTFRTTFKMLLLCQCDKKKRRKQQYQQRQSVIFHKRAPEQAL
# [25] = target: 5-hydroxytryptamine receptor 5A (Homo sapiens) (UniProt P47898); details: Compound concentration 10.0 uM
# 5-hydroxytryptamine receptor 5A (Homo sapiens), sequence (P47898 whole entry): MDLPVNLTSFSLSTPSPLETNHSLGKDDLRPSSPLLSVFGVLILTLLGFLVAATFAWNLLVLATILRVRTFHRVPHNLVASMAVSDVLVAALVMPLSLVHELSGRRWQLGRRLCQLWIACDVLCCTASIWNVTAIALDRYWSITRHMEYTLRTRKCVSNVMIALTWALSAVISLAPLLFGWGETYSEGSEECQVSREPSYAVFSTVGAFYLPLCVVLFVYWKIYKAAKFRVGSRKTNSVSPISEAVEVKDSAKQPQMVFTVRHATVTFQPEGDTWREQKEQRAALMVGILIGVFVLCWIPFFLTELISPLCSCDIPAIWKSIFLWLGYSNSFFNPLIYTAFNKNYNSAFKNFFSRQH
# [26] = target: 5-hydroxytryptamine receptor 2A (Homo sapiens) (UniProt P28223); details: Compound concentration 10.0 uM
# [27] = target: 5-hydroxytryptamine receptor 6 (Homo sapiens) (UniProt P50406); details: Compound concentration 10.0 uM
# [28] = target: Mu-type opioid receptor (Homo sapiens) (UniProt P35372); details: Compound concentration 10.0 uM
# [29] = target: Alpha-1B adrenergic receptor (Homo sapiens) (UniProt P35368); details: Compound concentration 10.0 uM
# [30] = target: Alpha-2C adrenergic receptor (Homo sapiens) (UniProt P18825); details: Compound concentration 10.0 uM
# [31] = target: D(4) dopamine receptor (Homo sapiens) (UniProt P21917); details: Compound concentration 10.0 uM
# [32] = target: Alpha-1D adrenergic receptor (Homo sapiens) (UniProt P25100); details: Compound concentration 10.0 uM
# [33] = target: Alpha-1A adrenergic receptor (Homo sapiens) (UniProt P35348); details: Compound concentration 10.0 uM
# Alpha-1A adrenergic receptor (Homo sapiens), sequence (P35348 whole entry): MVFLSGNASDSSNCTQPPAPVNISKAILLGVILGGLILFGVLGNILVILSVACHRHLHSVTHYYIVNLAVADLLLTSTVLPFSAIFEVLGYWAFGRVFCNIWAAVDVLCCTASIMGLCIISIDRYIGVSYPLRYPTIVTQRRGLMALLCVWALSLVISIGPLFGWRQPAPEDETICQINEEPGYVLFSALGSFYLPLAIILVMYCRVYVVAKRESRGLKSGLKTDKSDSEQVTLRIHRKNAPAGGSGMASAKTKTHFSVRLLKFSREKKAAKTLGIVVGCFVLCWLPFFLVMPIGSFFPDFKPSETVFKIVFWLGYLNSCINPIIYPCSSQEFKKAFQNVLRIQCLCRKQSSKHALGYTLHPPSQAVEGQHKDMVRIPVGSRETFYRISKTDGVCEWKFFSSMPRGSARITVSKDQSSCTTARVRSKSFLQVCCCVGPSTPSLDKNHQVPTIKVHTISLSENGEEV
# [34] = target: 5-hydroxytryptamine receptor 1A (Homo sapiens) (UniProt P08908); details: Compound concentration 10.0 uM
# [35] = target: Sodium-dependent noradrenaline transporter (Homo sapiens) (UniProt P23975); details: Compound concentration 10.0 uM
# 5-hydroxytryptamine receptor 7 (Homo sapiens), sequence (P34969 whole entry): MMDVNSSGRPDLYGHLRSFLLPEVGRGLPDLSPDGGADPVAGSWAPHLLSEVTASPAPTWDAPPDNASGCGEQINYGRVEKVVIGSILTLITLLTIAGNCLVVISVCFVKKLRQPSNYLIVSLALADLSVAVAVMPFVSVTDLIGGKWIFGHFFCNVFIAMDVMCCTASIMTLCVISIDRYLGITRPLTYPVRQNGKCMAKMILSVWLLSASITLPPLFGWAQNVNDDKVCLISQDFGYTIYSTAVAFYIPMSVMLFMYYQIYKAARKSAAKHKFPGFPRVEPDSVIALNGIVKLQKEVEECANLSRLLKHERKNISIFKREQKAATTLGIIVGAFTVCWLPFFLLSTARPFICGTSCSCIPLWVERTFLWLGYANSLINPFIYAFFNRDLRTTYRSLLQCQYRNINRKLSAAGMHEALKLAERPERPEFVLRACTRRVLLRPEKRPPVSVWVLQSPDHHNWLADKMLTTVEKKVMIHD
smiles,measurement,setting,value
Cc1c(Oc2ccc(F)cc2)c(OC(C)C)nn1-c1ccc(C2CC2)cn1 [IPP/CNRS-A019],inhibition,[1],7.06%
same,inhibition,[2],15.8%
same,inhibition,[3],4.72%
same,inhibition,[4],10.3%
same,Ki,[5]; read-out: Ki,5.25 µM
same,Ki,[5]; read-out: pKi (converted),4.47 µM
same,inhibition,[6],-1.77%
same,inhibition,[7],1.01%
same,inhibition,[8],17.6%
same,inhibition,[9],-0.91%
same,inhibition,[10],-0.09%
same,inhibition,[11],23.9%
same,inhibition,[12],-6.09%
same,inhibition,Rattus norvegicus,-2.86%
same,inhibition,[13],16.2%
same,inhibition,[14],21.2%
same,inhibition,[15],17%
same,inhibition,[16],5.35%
same,inhibition,[17],-0.39%
same,inhibition,[18],22.8%
same,inhibition,[19],64.9%
same,inhibition,[20],-6.74%
same,inhibition,[21],-2.37%
same,inhibition,[22],13.3%
same,inhibition,[23],11.7%
same,inhibition,[24],-6.6%
same,inhibition,[25],-6.43%
same,inhibition,[26],-7.39%
same,inhibition,[27],9.36%
same,inhibition,[28],-1.35%
same,inhibition,[29],-4.23%
same,inhibition,[30],8.56%
same,inhibition,[31],-4.56%
same,inhibition,[32],-0.81%
same,inhibition,[33],-2.65%
same,inhibition,[34],0.45%
same,inhibition,[35],0.15%
